How the values were obtained:
estrogenic response [1] = assay: Regression Test: reversal of established estrogenic response (uterine weight); format: in vivo, immature rats; settings: estradiol 0.1 mcg./day 3 days
Method: The following test was carried out to determine if the compounds of this invention could reverse an estrogenic response, when administration of the compound was started after the estrogenic response had become established.
The test animals were immature rats, and all administrations were by subcutaneous injection.
The mean uterine weights of these groups of animals, respectively, were 97.9, 97.3, 119.9 and 112.3 mg.
The animals were sacrificed on the fifth day and their mean uterine weight was 56.4 mg.
The animals were sacrificed on the seventh day and their mean uterine weight was 57.0 mg.

[2] = tested on: androgen-stimulated prostate growth; assay: Anti-Androgen Test, adult castrated male rats (ventral prostate weight); format: in vivo; settings: for Mean Prostate Weight: Experiment A
Method: The antiandrogenic property of the compounds was evaluated in the following tests, in which the compound of Example 3 was used again.
The animals used in this test were adult male rats having a body weight which averaged about 330 g. when the experiment ended. All of the animals to be used in the experiment were castrated by the scrotal route, and were held untreated for 3 days. On the fourth day, subcutaneous administration of 0.1 mg./day of an exogenous androgen, testosterone propionate, was begun, and was continued for seven consecutive days. An untreated control group of animals received injections of 0.1 ml./day of corn oil as a blank treatment. The compound of this invention was administered orally or subcutaneously to the treated animals in 0.1 ml. of corn oil, at the same time that the androgen was administered. The animals were sacrificed 24 hours after the last injection of testosterone propionate, the ventral prostate glands were removed and weighed, and the mean of the weights of each treatment group was reported. The table below reports the mean weights resulting from administration of various doses of the compound along with androgen.
Each treatment group of animals in this experiment consisted of seven to nine animals, except for the untreated control group, which contained twelve animals.

estrogenic response [3] = assay: Estrogenic Response Test, mature ovariectomized mice (uterine weight); format: in vivo, adult ovariectomized mice; settings: Experiment E, s.c.
Method: The first test reported below is used to determine the estrogenic potency of compounds. It is well known that many compounds having antiestrogenic activity also, typically, have estrogenic activity. As has been explained, estrogenic activity is a liability in an antiestrogen, and thus it is important to identify antiestrogens having a minimum amount of estrogenic activity. This test was conducted with immature 40-45 g. female rats, immature 11-13 g. mice, and adult ovariectomized mice. The rats were tested in groups of six, and mice in groups of ten. All of the laboratory animals were from standardized strains and were equilibrated to the laboratory before the test started. Each test was begun by administering the test compound daily for three days, as a subcutaneous injection or by oral gavage, as indicated below in the reports of individual experiments. Untreated control animals were included in each experiment, along with animals to which estradiol was administered subcutaneously. The estradiol-treated animals provided positive controls, showing the physiological effect of a potent estrogen on the individual group of animals used in the experiment. […] The test animals were treated for three days and sacrificed on the fourth day, and the uteri were removed, freed of extraneous tissue, and blotted with paper towels. The uteri were weighed to the nearest 0.1 mg. The tables below report the results of representative experiments. The doses of estradiol and of the compound of this invention are given as the total of the three daily doses. The uterine weights are given, in mg., as the means of all of the organ weights of the animals in a group. Compounds are referred to by their example numbers above.

[4] = tested on: DMBA-induced mammary tumors; assay: Tests Against DMBA-Induced mammary tumors; format: in vivo, adult female virgin rats
Text: Mammary tumors were induced in adult female virgin rats by a single 20-mg. oral dose of 7,12-dimethylbenzanthracene. Within about six weeks, visible and palpable tumors were present in the mammary tissue of the rats, and the rats were allocated into treatment and control groups in such a way that each group contained animals having approximately the same size and number of tumors. The size of the tumors was estimated by measuring their cross-sectional area. […]
[…] The treated animals received 1 mg./kg. per day of 6-methoxy-2-(4-hydroxyphenyl)-3-[4-(2-piperidinoethoxy)benzoyl]benzo[b]thiophene, hydrochloride, as a subcutaneous injection in corn oil. The animals were not ovariectomized at the end of the experiment.

[5] = Experiment B, 20 mg./kg./day, orally, four weeks
[6] = Experiment C, low dose 20 mg./kg./day, four weeks

O=C(c1ccc(OCCN2CCCCC2)cc1)c1c(-c2ccc(O)cc2)sc2cc(O)ccc12 [Example 3, 6-hydroxy-2-(4-hydroxyphenyl)-3-[4-(2-piperidinoethoxy)benzoyl]benzo[b]thiophene]
mean uterine weight (estrogenic response [1]; then estradiol + 1 mg. compound s.c. on following five days, sacrificed ninth day): 50.7 mg | mean uterine weight (estrogenic response [1]; then estradiol + 1 mg. compound s.c. on following three days, sacrificed seventh day): 57.0 mg | mean uterine weight (estrogenic response [1]; then estradiol + 1 mg. compound s.c. on fourth day, sacrificed fifth day): 56.4 mg | Mean Prostate Weight ([2]; 0.01 mg./day, S.C. + testosterone propionate 0.1 mg./day): 253 mg | Mean Prostate Weight ([2]; 0.01 mg./day, oral + testosterone propionate 0.1 mg./day): 192 mg | Mean Prostate Weight ([2]; 0.1 mg./day, S.C. + testosterone propionate 0.1 mg./day): 235 mg | Mean Prostate Weight ([2]; 0.1 mg./day, oral + testosterone propionate 0.1 mg./day): 267 mg | Mean Prostate Weight ([2]; 1 mg./day, S.C. + testosterone propionate 0.1 mg./day): 201 mg | Mean Prostate Weight ([2]; 1 mg./day, oral + testosterone propionate 0.1 mg./day): 242 mg | effect on androgen-stimulated prostate growth ([2]; conclusion in words, Experiments A-C): inhibited a large part of the abnormal prostate growth | Uterine weight (estrogenic response [3]; total dose 3 mg.): 23.1 mg | Uterine weight (estrogenic response [3]; total dose 0.3 mcg.): 18.2 mg | Uterine weight (estrogenic response [3]; total dose 3 mcg.): 25.6 mg | Uterine weight (estrogenic response [3]; total dose 30 mcg.): 26.2 mg | Uterine weight (estrogenic response [3]; total dose 300 mcg.): 24.8 mg | average total cross-sectional area of tumor ([4]; Experiment A, oral 0.1, 5, 10, 20 mg./kg./day in successive two-week periods, 8 weeks): 345 square millimeters | total cross-sectional area of tumor, lower end of range ([4]; Experiment A, oral, 8 weeks): complete regression | total cross-sectional area of tumor, upper end of range ([4]; Experiment A, oral, 8 weeks, one animal, tumors not estrogen-dependent): ≤ 1550 sq. mm. | animals with completely regressed tumors [4, 5]: one of the compound-treated animals had completely regressed | average total tumor area [4, 5]: 152 square millimeters | growth of the large tumor (668 square millimeters) ([4]; Experiment B, 20 mg./kg./day, orally, since second week, shrank after ovariectomy): its growth had been checked, and it had not significantly grown | average tumor area ([4]; Experiment C, high dose 40 mg./kg./day, four weeks): 304 square millimeters | average cross-sectional tumor area [4, 6]: 441 square millimeters | tumor area, lower end of range [4, 6]: no tumors present | tumor area, upper end of range [4, 6]: ≤ 1907 square millimeters

— patent US4418068A, “Antiestrogenic and antiandrugenic benzothiophenes” (Eli Lilly and Company, priority 1981, dated 1983)
